# Measurements from the Kinase Knowledgebase extract (Sharma et al. 2016).
# Biological target: PIK3CB;PIK3CG;PIK3CD;PIK3CA (human) (UniProt P48736)
# Test: Inhibition of PIK3CA/PIK3CB/PIK3CD/PIK3CG Kinase Activity
row,IC50,SMILES
1,139 nM,CS(=O)(=O)c1cc(C(=O)O)nc2c(-c3cc(F)ccc3O)nc(N3CCOCC3)nc12
2,255 nM,COCCOc1cc(C(=O)O)nc2c(-c3cccc(O)c3)nc(N3CCOCC3)nc12
3,855 nM,O=C(O)c1ccc2nc(N3CCOCC3)nc(-c3ccc(O)cc3)c2n1
4,27 nM,O=C(O)c1cc(NCCO)c2nc(N3CCOCC3)nc(-c3cccc(CO)c3)c2n1
5,75 nM,O=C(O)c1cc(NCCO)c2nc(N3CCOCC3)nc(-c3cccc(O)c3)c2n1
6,15 nM,CS(=O)(=O)N1CCN(c2cc(C(=O)O)nc3c(-c4cccc(O)c4)nc(N4CCOCC4)nc23)CC1
7,546 nM,COCCN(C)c1cc(C(=O)O)nc2c(-c3ccc(CO)cc3)nc(N3CCOCC3)nc12
8,220 nM,CN(CCO)c1cc(C(=O)O)nc2c(-c3ccc(F)cc3O)nc(N3CCOCC3)nc12
9,1080 nM,COc1cccc(-c2nc(N3CCOCC3)nc3c(Cl)cc(C(=O)O)nc23)c1
10,66 nM,CN(C)c1cc(C(=O)O)nc2c(-c3cc(F)ccc3O)nc(N3CCOCC3)nc12
11,225 nM,Cc1cc(C(=O)O)nc2c(-c3cccc(O)c3)nc(N3CCOCC3)nc12
12,329 nM,CN(C)c1cc(C(=O)O)nc2c(-c3ccc(F)c(CO)c3)nc(N3CCOCC3)nc12
13,1850 nM,COCc1cccc(-c2nc(N3CCOCC3)nc3c(N(C)CCO)cc(C(=O)O)nc23)c1
14,1100 nM,CN(C)c1cc(C(=O)O)nc2c(-c3cccc(C#N)c3)nc(N3CCOCC3)nc12
15,74 nM,CN(CCO)c1cc(C(=O)O)nc2c(-c3cccc(CO)c3)nc(N3CCOCC3)nc12
16,335 nM,CS(=O)(=O)c1cc(C(=O)O)nc2c(-c3ccc(O)c(F)c3)nc(N3CCOCC3)nc12
17,128 nM,COCCNc1cc(C(=O)O)nc2c(-c3cccc4[nH]ccc34)nc(N3CCOCC3)nc12
18,63 nM,O=C(O)c1ccc2nc(N3CCOCC3)nc(-c3cccc(O)c3)c2n1
19,23 nM,CN(C)c1cc(C(=O)O)nc2c(-c3ccccc3O)nc(N3CCOCC3)nc12
20,5050 nM,COCc1cccc(-c2nc(N3CCOCC3)nc3c(N(C)C)cc(C(=O)O)nc23)c1
21,2520 nM,COCCOc1cc(C(=O)O)nc2c(-c3ccc(O)cc3)nc(N3CCOCC3)nc12
22,780 nM,CNc1cc(C(=O)O)nc2c(-c3cccc4[nH]ccc34)nc(N3CCOCC3)nc12

row,IC50,SMILES
1,43 nM,O=C(O)c1cc(NCCO)c2nc(N3CCOCC3)nc(-c3cccc(F)c3O)c2n1
2,64 nM,O=C(O)c1cc(NCCO)c2nc(N3CCOCC3)nc(-c3cc(O)cc(F)c3)c2n1
3,62 nM,COCCN(C)c1cc(C(=O)O)nc2c(-c3ccc(F)cc3O)nc(N3CCOCC3)nc12
4,1290 nM,COCCN(C)c1cc(C(=O)O)nc2c(-c3cc(F)cc(F)c3)nc(N3CCOCC3)nc12
5,346 nM,COCCNc1cc(C(=O)O)nc2c(-c3ccc(CO)cc3)nc(N3CCOCC3)nc12
6,504 nM,COCCNc1cc(C(=O)O)nc2c(-c3ccc(O)cc3)nc(N3CCOCC3)nc12
7,304 nM,CNc1cc(C(=O)O)nc2c(-c3cc(F)ccc3O)nc(N3CCOCC3)nc12
8,34 nM,CN(C)c1cc(C(=O)O)nc2c(-c3cccc(CO)c3)nc(N3CCOCC3)nc12
9,77 nM,CN(CCO)c1cc(C(=O)O)nc2c(-c3cccc4[nH]ccc34)nc(N3CCOCC3)nc12
10,28 nM,COCCN(C)c1cc(C(=O)O)nc2c(-c3cccc(O)c3)nc(N3CCOCC3)nc12
11,82 nM,O=C(O)c1cc(NCCO)c2nc(N3CCOCC3)nc(-c3ccccc3O)c2n1
12,936 nM,Cc1cc(O)ccc1-c1nc(N2CCOCC2)nc2c(N(C)CCO)cc(C(=O)O)nc12
13,89 nM,COCCNc1cc(C(=O)O)nc2c(-c3ccc(F)cc3O)nc(N3CCOCC3)nc12
14,2490 nM,COCc1cccc(-c2nc(N3CCOCC3)nc3c(NCCO)cc(C(=O)O)nc23)c1
15,459 nM,CN(C)CCN(C)c1cc(C(=O)O)nc2c(-c3ccccc3O)nc(N3CCOCC3)nc12
16,8 nM,COCCN(C)c1cc(C(=O)O)nc2c(-c3cccc(CO)c3)nc(N3CCOCC3)nc12
17,678 nM,O=C(O)c1cc(Cl)c2nc(N3CCOCC3)nc(-c3ccccc3)c2n1
18,350 nM,CN(C)c1cc(C(=O)O)nc2c(-c3ccc(O)cc3)nc(N3CCOCC3)nc12
19,19 nM,COCCN(C)c1cc(C(=O)O)nc2c(-c3cc(O)cc(F)c3)nc(N3CCOCC3)nc12
20,48 nM,CNc1cc(C(=O)O)nc2c(-c3cccc(F)c3O)nc(N3CCOCC3)nc12
21,80 nM,CC(=O)N1CCN(c2cc(C(=O)O)nc3c(-c4cccc(O)c4)nc(N4CCOCC4)nc23)CC1
22,57 nM,O=C(O)c1cc(-c2cccc3ccccc23)c2nc(N3CCOCC3)nc(-c3cccc(O)c3)c2n1

row,IC50,SMILES
1,137 nM,CN(C)CCN(C)c1cc(C(=O)O)nc2c(-c3cccc4[nH]ccc34)nc(N3CCOCC3)nc12
2,1830 nM,COCCNc1cc(C(=O)O)nc2c(-c3cccc(COC)c3)nc(N3CCOCC3)nc12
3,73 nM,COCCNc1cc(C(=O)O)nc2c(-c3cc(F)ccc3O)nc(N3CCOCC3)nc12
4,564 nM,CN(C)CCN(C)c1cc(C(=O)O)nc2c(-c3cc(F)ccc3O)nc(N3CCOCC3)nc12
5,169 nM,COCCN(C)c1cc(C(=O)O)nc2c(-c3ccc4[nH]ccc4c3)nc(N3CCOCC3)nc12
6,15 nM,CS(=O)(=O)c1cc(C(=O)O)nc2c(-c3cc(O)cc(F)c3)nc(N3CCOCC3)nc12
7,26 nM,CS(=O)(=O)c1cc(C(=O)O)nc2c(-c3cccc(F)c3O)nc(N3CCOCC3)nc12
8,108 nM,O=C(O)c1cc(Cl)c2nc(N3CCOCC3)nc(-c3cccc(O)c3)c2n1
9,9 nM,COCCN(C)c1cc(C(=O)O)nc2c(-c3cccc(F)c3O)nc(N3CCOCC3)nc12
10,10 nM,CN(CCO)c1cc(C(=O)O)nc2c(-c3cccc(F)c3O)nc(N3CCOCC3)nc12
11,290 nM,COCCN(C)c1cc(C(=O)O)nc2c(-c3ccc(O)cc3)nc(N3CCOCC3)nc12
12,303 nM,CN(CCO)c1cc(C(=O)O)nc2c(-c3ccc(F)c(CO)c3)nc(N3CCOCC3)nc12
13,4490 nM,COc1cccc(-c2nc(N3CCOCC3)nc3ccc(C(=O)O)nc23)c1
14,132 nM,CN(C)c1cc(C(=O)O)nc2c(-c3cccc4[nH]ccc34)nc(N3CCOCC3)nc12
15,144 nM,CNc1cc(C(=O)O)nc2c(-c3cccc(O)c3)nc(N3CCOCC3)nc12
16,18 nM,COCCNc1cc(C(=O)O)nc2c(-c3cccc(F)c3O)nc(N3CCOCC3)nc12
17,412 nM,CNc1cc(C(=O)O)nc2c(-c3ccc(F)cc3O)nc(N3CCOCC3)nc12
18,732 nM,O=C(O)c1cc(NCCO)c2nc(N3CCOCC3)nc(-c3ccc(O)cc3)c2n1
19,93 nM,COCCOc1cc(C(=O)O)nc2c(-c3cc(O)cc(F)c3)nc(N3CCOCC3)nc12
20,30 nM,CS(=O)(=O)N1CCN(c2cc(C(=O)O)nc3c(-c4ccccc4)nc(N4CCOCC4)nc23)CC1
21,83 nM,CN(C)c1cc(C(=O)O)nc2c(-c3ccc(F)cc3O)nc(N3CCOCC3)nc12
22,24 nM,COc1ccccc1-c1cc(C(=O)O)nc2c(-c3cccc(O)c3)nc(N3CCOCC3)nc12
